Columns and labels:
[1] = biological target: T1, Endothelin-1 receptor (Homo sapiens, UniProt P25101)
T1 sequence (P25101 whole entry): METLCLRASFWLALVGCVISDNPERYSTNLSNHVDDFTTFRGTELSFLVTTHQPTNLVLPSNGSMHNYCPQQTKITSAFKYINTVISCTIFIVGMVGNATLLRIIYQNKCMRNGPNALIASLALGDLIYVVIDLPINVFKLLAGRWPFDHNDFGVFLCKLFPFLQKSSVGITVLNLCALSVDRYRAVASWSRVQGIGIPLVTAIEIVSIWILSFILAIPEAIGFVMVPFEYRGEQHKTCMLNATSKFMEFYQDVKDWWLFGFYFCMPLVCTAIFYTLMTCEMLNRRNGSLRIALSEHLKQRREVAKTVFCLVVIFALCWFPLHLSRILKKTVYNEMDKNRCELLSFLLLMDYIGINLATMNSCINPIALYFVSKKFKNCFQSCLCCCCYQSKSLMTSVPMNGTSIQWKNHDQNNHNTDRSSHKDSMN

[2] = biological target: T2, Endothelin receptor type B (Homo sapiens, UniProt P24530)
T2 sequence (P24530 whole entry): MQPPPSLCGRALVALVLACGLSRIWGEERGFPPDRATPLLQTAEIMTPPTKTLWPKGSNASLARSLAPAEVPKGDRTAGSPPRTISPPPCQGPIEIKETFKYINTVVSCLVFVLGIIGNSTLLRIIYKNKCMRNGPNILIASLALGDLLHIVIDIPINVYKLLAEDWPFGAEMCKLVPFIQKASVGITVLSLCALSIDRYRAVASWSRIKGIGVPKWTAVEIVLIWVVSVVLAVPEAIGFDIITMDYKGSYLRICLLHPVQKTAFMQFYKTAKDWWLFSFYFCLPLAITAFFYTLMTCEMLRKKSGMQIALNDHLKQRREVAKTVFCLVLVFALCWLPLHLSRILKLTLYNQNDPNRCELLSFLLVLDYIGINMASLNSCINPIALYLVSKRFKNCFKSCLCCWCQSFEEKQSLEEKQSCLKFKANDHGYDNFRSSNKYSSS

Ki [1]: 0.03 nM
Ki [2]: 0.1 nM
Structure (SMILES): CCCCc1ccc2c(n1)[C@@H](c1ccc(OC)cc1C[C@H](C)C(=O)O)[C@H](C(=O)O)[C@H]2c1ccc2c(c1)OCO2 [J-104132]

Reference: BindingDB's records for PubMed 10336515 (Banyu Pharmaceutical, 1999)
